The source of these data is the SangsterLogP compilation.

Usually logP stands for the decadic logarithm of the partition coefficient of the neutral form, usually between octanol and water. Read a high logP as a more lipophilic compound.

`COc1ccc(C=NN=c2ccn(CCCCc3ccccc3)cc2)cc1` came in with a logP of 3.4.

Compound `COc1ccc(C=NN=c2ccn(CCCc3ccccc3)cc2)cc1` displayed a logP of 3.4.

`Clc1ccc(C=NN=c2ccn(Cc3ccccc3Br)cc2)cc1`: the logP came to 3.9.

On to `Clc1cccc(Cl)c1C=NN=c1ccn(Cc2ccccc2)cc1`, for which the logP worked out at 3.9.

Take `Fc1ccc(Cn2ccc(=NN=Cc3ccc(Cl)cc3)cc2)cc1`: the log partition coefficient (logP) amounted to 3.8.

In turn, `O=[N+]([O-])c1ccc(C=NN=c2ccn(CCCCc3ccccc3)cc2)cc1` yielded a logP of 3.9.

Consider `Clc1ccc(C=NN=c2ccn(Cc3ccccc3)cc2)cc1`, for which the log partition coefficient (logP) worked out at 3.8.

Compound `Clc1ccc(C=NN=c2ccn(CC=Cc3ccccc3)cc2)cc1` yielded a lipophilicity (logP) of 3.9.

As for `Fc1ccc(C=NN=c2ccn(Cc3ccccc3)cc2)cc1`, the lipophilicity (logP) turned out to be 3.7.

In turn, `C(=NN=c1ccn(CCc2ccccc2)cc1)c1cccc2ccccc12` displayed a logP of 4.3.

In turn, `COc1ccc(C=NN=c2ccn(Cc3ccccc3)cc2)cc1` came in with a logP of 3.3.

`COc1cccc(OC)c1C=NN=c1ccn(CCCc2ccccc2)cc1` gave a logP of 3.4.

In the case of `C(CCc1ccccc1)=NN=c1ccn(CCCc2ccccc2)cc1`, the logP amounted to 4.

As for `C(=NN=c1ccn(CCCc2ccccc2)cc1)c1cccc2ccccc12`, the lipophilicity (logP) was 4.3.

As for `COc1ccccc1C=NN=c1ccn(CCc2ccccc2)cc1`, the logP is 3.4.

`Brc1ccccc1Cn1ccc(=NN=CCCc2ccccc2)cc1` had a logP of 3.9.

The compound `Cc1cccc(C)c1C=NN=c1ccn(CCCCCc2ccccc2)cc1` showed a logP of 3.4.

As for `O=[N+]([O-])c1ccc(C=NN=c2ccn(CC=Cc3ccccc3)cc2)cc1`, the lipophilicity (logP) came to 3.8.

Consider `Fc1cccc(C=NN=c2ccn(Cc3ccccc3)cc2)c1`, for which the log partition coefficient (logP) is 3.7.

As to `C(=NN=c1ccn(CCCCCc2ccccc2)cc1)c1cccc2ccccc12`, the logP was determined as 4.4.

Consider `Cc1ccccc1C=NN=c1ccn(CCCc2ccccc2)cc1`, for which the logP was found to be 4.

The compound `C(=NN=c1ccn(CCc2ccccc2)cc1)c1c2ccccc2cc2ccccc12` displayed a logP of 4.4.

In turn, `Oc1ccccc1C=NN=c1ccn(CCCc2ccccc2)cc1` registered a lipophilicity (logP) of 3.3.

In turn, `Fc1cccc(C=NN=c2ccn(Cc3ccccc3Br)cc2)c1` had a lipophilicity (logP) of 3.9.

As to `Cc1ccc(C=NN=c2ccn(CC=Cc3ccccc3)cc2)cc1`, the logP worked out at 4.

`COc1ccc(C=NN=c2ccn(CC=Cc3ccccc3)cc2)cc1` registered a logP of 3.4.

For `C(Cc1ccccc1)=NN=c1ccn(CCCc2ccccc2)cc1`, the log partition coefficient (logP) amounted to 3.9.

Compound `C(Cc1ccccc1)=NN=c1ccn(Cc2ccccc2)cc1` had a lipophilicity (logP) of 3.9.

`COc1ccc(C=NN=c2ccn(CCCCCN3C(=O)c4ccccc4C3=O)cc2)cc1` yielded a logP of 3.4.

Consider `COc1ccccc1C=NN=c1ccn(Cc2ccccc2)cc1`, for which the lipophilicity (logP) was 3.3.

For the compound `Cc1cccc(C=NN=c2ccn(CCCN3C(=O)c4ccccc4C3=O)cc2)c1`, the logP was 3.8.

As for `Clc1cccc(Cl)c1Cn1ccc(=NN=Cc2c3ccccc3cc3ccccc23)cc1`, the logP came to 4.4.

Regarding `Cc1ccc(C=NN=c2ccn(CCCc3ccccc3)cc2)cc1`, the lipophilicity (logP) came to 4.

The compound `Cc1ccc(C=NN=c2ccn(Cc3ccccc3)cc2)cc1` displayed a logP of 3.9.

With `Cc1ccc(C=NN=c2ccn(CCCN3C(=O)c4ccccc4C3=O)cc2)cc1`, the log partition coefficient (logP) was determined as 3.6.

The compound `Clc1ccc(C=NN=c2ccn(Cc3ccccc3I)cc2)cc1` registered a log partition coefficient (logP) of 3.9.

On to `Cc1cccc(C)c1C=NN=c1ccn(CCCc2ccccc2)cc1`, for which the logP was 3.3.

Consider `COc1ccc(C=NN=c2ccn(CCCCCc3ccccc3)cc2)cc1`, for which the logP was determined as 3.5.

`Clc1ccccc1C=NN=c1ccn(CCCc2ccccc2)cc1` had a logP of 3.9.

Turning to `Cc1cccc(C)c1C=NN=c1ccn(CCc2ccccc2)cc1`, the logP was 3.3.

`Clc1cccc(Cl)c1C=NN=c1ccn(CCc2ccccc2)cc1` registered a log partition coefficient (logP) of 4.

In turn, `C(=NN=c1ccn(CCCCCc2ccccc2)cc1)c1c2ccccc2cc2ccccc12` showed a logP of 4.4.

For `Cc1cccc(C)c1C=NN=c1ccn(Cc2ccccc2)cc1`, the logP amounted to 4.

`Cc1ccc(C=NN=c2ccn(Cc3ccc4ccccc4c3)cc2)cc1` showed a logP of 4.

`Cc1ccc(C=NN=c2ccn(CCCCc3ccccc3)cc2)cc1` registered a logP of 4.

With `COc1cccc(OC)c1C=NN=c1ccn(-c2c(Cl)cccc2Cl)cc1`, the logP came out at 3.4.

For the compound `COc1cccc(OC)c1C=NN=c1ccn(CCCCc2ccccc2)cc1`, the logP turned out to be 3.4.

The compound `COc1cccc(OC)c1C=NN=c1ccn(CCCCCc2ccccc2)cc1` showed a log partition coefficient (logP) of 3.5.

Compound `Clc1ccc(C=NN=c2ccn(CCCc3ccccc3)cc2)cc1` returned a logP of 3.9.

As to `Clc1ccccc1C=NN=c1ccn(CCc2ccccc2)cc1`, the logP came out at 3.9.

In turn, `Clc1cccc(Cl)c1Cn1ccc(=NN=Cc2cccc3ccccc23)cc1` showed a lipophilicity (logP) of 4.3.

`Cc1ccccc1C=NN=c1ccn(Cc2c(Cl)cccc2Cl)cc1` returned a log partition coefficient (logP) of 3.9.

`Cc1ccc(C=NN=c2ccn(CCCCCc3ccccc3)cc2)cc1` gave a logP of 4.1.

`CCCCCCn1ccc(=NN=Cc2ccc(C)cc2)cc1` yielded a logP of 3.8.

As to `Clc1ccccc1C=NN=c1ccn(Cc2ccccc2)cc1`, the logP turned out to be 3.8.

With `C(=NN=c1ccn(CCCCc2ccccc2)cc1)c1c2ccccc2cc2ccccc12`, the logP was determined as 4.4.

With `COc1cccc(OC)c1C=NN=c1ccn(CCc2ccccc2)cc1`, the logP was 3.4.

The compound `C(=NN=c1ccn(Cc2ccccc2)cc1)c1ccc2ccccc2c1` had a logP of 4.2.

`Brc1ccc(C=NN=c2ccn(CCCCc3ccccc3)cc2)cc1`: the logP was 3.9.

For `Brc1ccc(C=NN=c2ccn(CCCc3ccccc3)cc2)cc1`, the logP was determined as 3.9.

In turn, `COc1ccccc1C=NN=c1ccn(CCCc2ccccc2)cc1` displayed a logP of 3.4.

`Clc1cccc(Cl)c1C=NN=c1ccn(Cc2c(Cl)cccc2Cl)cc1` registered a logP of 4.

In turn, `Clc1cccc(Cl)c1C=NN=c1ccn(CCCCc2ccccc2)cc1` registered a logP of 4.

In turn, `COc1ccc(C=NN=c2ccn(CCc3ccccc3)cc2)cc1` displayed a logP of 3.4.

In turn, `Fc1ccc(Br)cc1Cn1ccc(=NN=Cc2ccc(Cl)cc2)cc1` showed a logP of 4.

For `O=[N+]([O-])c1ccc(C=NN=c2ccn(CCc3ccccc3)cc2)cc1`, the lipophilicity (logP) worked out at 3.9.

Regarding `Cc1cccc(C)c1C=NN=c1ccn(CCCCc2ccccc2)cc1`, the logP stood at 3.3.

Compound `C(=NN=c1ccn(Cc2ccccc2)cc1)c1c2ccccc2cc2ccccc12` showed a logP of 4.3.

In the case of `O=[N+]([O-])c1ccc(C=NN=c2ccn(CCCCCc3ccccc3)cc2)cc1`, the lipophilicity (logP) turned out to be 4.

In the case of `Fc1cccc(C=NN=c2ccn(CCCc3ccccc3)cc2)c1`, the logP worked out at 3.8.

Take `COc1cccc(OC)c1C=NN=c1ccn(Cc2ccccc2)cc1`: the logP is 3.3.

Turning to `Cc1cccc(Cn2ccc(=NN=CCCc3ccccc3)cc2)c1C`, the lipophilicity (logP) amounted to 3.9.

Turning to `Brc1ccc(C=NN=c2ccn(Cc3ccccc3)cc2)cc1`, the lipophilicity (logP) came out at 3.9.

`Cc1cccc(C=NN=c2ccn(CCCc3ccccc3)cc2)c1` registered a logP of 4.

The compound `C(=NN=c1ccn(CCCCc2ccccc2)cc1)c1cccc2ccccc12` showed a logP of 4.3.

In turn, `Oc1ccccc1C=NN=c1ccn(Cc2c(Cl)cccc2Cl)cc1` gave a logP of 3.3.

Take `C(=NN=c1ccn(CCCc2ccccc2)cc1)c1ccc2ccccc2c1`: the lipophilicity (logP) was found to be 4.3.

`Cc1ccc(C=NN=c2ccn(CCc3ccccc3)cc2)cc1` had a logP of 4.

For `O=[N+]([O-])c1ccc(C=NN=c2ccn(CCCc3ccccc3)cc2)cc1`, the log partition coefficient (logP) amounted to 3.8.

In turn, `C(=NN=c1ccn(CCCc2ccccc2)cc1)c1c2ccccc2cc2ccccc12` had a log partition coefficient (logP) of 4.4.

Compound `Brc1ccc(C=NN=c2ccn(CCCCCc3ccccc3)cc2)cc1` displayed a lipophilicity (logP) of 4.

As to `COc1ccccc1C=NN=c1ccn(Cc2c(Cl)cccc2Cl)cc1`, the logP is 3.4.

Regarding `Clc1cccc(Cl)c1C=NN=c1ccn(CCCCCc2ccccc2)cc1`, the logP came to 4.

In turn, `Oc1ccccc1C=NN=c1ccn(Cc2ccccc2)cc1` returned a logP of 3.2.

`C(CCc1ccccc1)=NN=c1ccn(Cc2ccccc2)cc1` displayed a lipophilicity (logP) of 4.

Compound `C(=NN=c1ccn(Cc2ccccc2)cc1)c1cccc2ccccc12` returned a lipophilicity (logP) of 4.2.

As to `Fc1ccc(Cn2ccc(=NN=CCCc3ccccc3)cc2)cc1`, the logP is 3.9.

For the compound `Cc1ccc(C)c(-n2ccc(=NN=Cc3ccc(Cl)cc3)cc2)c1`, the log partition coefficient (logP) was 4.

Regarding `C(=NN=c1ccn(Cc2ccc3ccccc3c2)cc1)c1cccc2ccccc12`, the logP came out at 4.4.

For `Oc1ccccc1C=NN=c1ccn(CCc2ccccc2)cc1`, the logP was determined as 3.3.

The compound `O=[N+]([O-])c1ccc(C=NN=c2ccn(Cc3ccccc3)cc2)cc1` displayed a log partition coefficient (logP) of 3.8.

`COc1ccc(C=NN=c2ccn(Cc3c(Cl)cccc3Cl)cc2)cc1` showed a logP of 3.4.

As for `Clc1cccc(Cl)c1Cn1ccc(=NN=Cc2ccc(Br)cc2)cc1`, the logP is 3.9.

`COc1ccccc1C=NN=c1ccn(Cc2ccc3ccccc3c2)cc1`: the log partition coefficient (logP) worked out at 3.4.

With `Fc1ccc(C=NN=c2ccn(CCCc3ccccc3)cc2)cc1`, the lipophilicity (logP) is 3.8.

`O=[N+]([O-])c1ccc(C=NN=c2ccn(Cc3c(Cl)cccc3Cl)cc2)cc1` returned a log partition coefficient (logP) of 4.

For `Cc1ccc(C=NN=c2ccn(Cc3c(Cl)cccc3Cl)cc2)cc1`, the logP was 3.9.

`Cc1cccc(C)c1C=NN=c1ccn(Cc2c(Cl)cccc2Cl)cc1` returned a log partition coefficient (logP) of 3.3.

`COc1ccccc1C=NN=c1ccn(CC=Cc2ccccc2)cc1` returned a log partition coefficient (logP) of 3.5.

`Clc1ccccc1C=NN=c1ccn(Cc2c(Cl)cccc2Cl)cc1`: the logP is 3.9.

The compound `O=C1c2ccccc2C(=O)N1CCCn1ccc(=NN=Cc2ccc3ccccc3c2)cc1` showed a logP of 4.1.

As to `Cc1ccccc1C=NN=c1ccn(Cc2ccccc2)cc1`, the logP is 3.9.

For the compound `Fc1cc(Br)ccc1Cn1ccc(=NN=CCCc2ccccc2)cc1`, the lipophilicity (logP) worked out at 3.9.
